Data taken from the NIST ThermoML archive (doi:10.1016/j.jct.2018.04.005).
± gives the expanded uncertainty stated by the source.

Columns and labels:
[1] = 100 kPa, Liquid, Vibrating tube method
[2] = xn = mol fraction of the nth substance listed; details: 100 kPa, Liquid, Vibrating tube method

CCCC[n+]1ccn(C)c1.O=S(=O)([N-]S(=O)(=O)C(F)(F)F)C(F)(F)F
[1]
Details | mass density [kg/m3]
293.15 K | 1442.3 ± 4
298.15 K | 1435.96 ± 4
303.15 K | 1431.96 ± 4
308.15 K | 1427.23 ± 4
313.15 K | 1422.19 ± 4
318.15 K | 1417.89 ± 4
323.15 K | 1412.96 ± 4

CCCCn1cc[n+](C)c1.F[P-](F)(F)(F)(F)F [1-butyl-3-methylimidazolium hexafluorophosphate]
[1]
Details | mass density [kg/m3]
293.15 K | 1370.73 ± 4
298.15 K | 1366.5 ± 4
303.15 K | 1361.63 ± 4
308.15 K | 1359.45 ± 4
313.15 K | 1355.23 ± 4
318.15 K | 1351.63 ± 4
323.15 K | 1347.23 ± 4

CCCCn1cc[n+](C)c1.F[P-](F)(F)(F)(F)F [1-butyl-3-methylimidazolium hexafluorophosphate] + COC(=O)OC
mass density [kg/m3], [2]
Details | x1 = 0.034 | x1 = 0.0734 | x1 = 0.1196 | x1 = 0.1744 | x1 = 0.2407 | x1 = 0.3222 | x1 = 0.4251 | x1 = 0.559 | x1 = 0.7404 | x1 = 1
293.15 K | 1099.2 ± 16 | 1128.63 ± 15 | 1159.82 ± 13 | 1189.04 ± 11 | 1220.08 ± 9.1 | 1249.42 ± 7.5 | 1278.97 ± 6.4 | 1308.93 ± 5.6 | 1339.9 ± 4.9 | 1370.73 ± 4
298.15 K | 1092.76 ± 17 | 1122.91 ± 15 | 1154.74 ± 13 | 1183.63 ± 11 | 1214.03 ± 9.1 | 1244.28 ± 7.6 | 1274.43 ± 6.4 | 1303.88 ± 5.5 | 1335.38 ± 4.9 | 1366.5 ± 4
303.15 K | 1086.29 ± 17 | 1116.15 ± 15 | 1148.32 ± 13 | 1177.52 ± 11 | 1208.51 ± 9.2 | 1238.99 ± 7.7 | 1269.31 ± 6.4 | 1298.92 ± 5.5 | 1330.3 ± 4.9 | 1361.63 ± 4
308.15 K | 1080.03 ± 17 | 1110.74 ± 15 | 1142.49 ± 13 | 1173.19 ± 11 | 1203.38 ± 9.2 | 1234.34 ± 7.8 | 1265.31 ± 6.5 | 1295.41 ± 5.6 | 1327.51 ± 4.9 | 1359.45 ± 4
313.15 K | 1073.79 ± 17 | 1104.95 ± 15 | 1136.01 ± 13 | 1167.14 ± 11 | 1197.82 ± 9.2 | 1229.08 ± 7.8 | 1260.15 ± 6.5 | 1290.91 ± 5.6 | 1322.98 ± 4.9 | 1355.23 ± 4
318.15 K | 1067.23 ± 17 | 1098.5 ± 15 | 1130.22 ± 13 | 1161.77 ± 11 | 1192.91 ± 9.3 | 1224.39 ± 7.8 | 1255.4 ± 6.6 | 1286.76 ± 5.7 | 1318.91 ± 5 | 1351.63 ± 4
323.15 K | 1060.39 ± 17 | 1092.27 ± 16 | 1125.56 ± 13 | 1156.96 ± 11 | 1187.95 ± 9.3 | 1219.55 ± 7.9 | 1250.82 ± 6.6 | 1282.14 ± 5.7 | 1314.13 ± 5 | 1347.23 ± 4

CCCCn1cc[n+](C)c1.F[B-](F)(F)F [1-butyl-3-methylimidazolium tetrafluoroborate]
[1]
Details | mass density [kg/m3]
293.15 K | 1202.47 ± 4
298.15 K | 1200.1 ± 4
303.15 K | 1195.48 ± 4
308.15 K | 1191.65 ± 4
313.15 K | 1187.83 ± 4
318.15 K | 1184.13 ± 4
323.15 K | 1180.33 ± 4

COC(=O)OC [dimethyl carbonate]
[1]
Details | mass density [kg/m3]
293.15 K | 1069.83 ± 4
298.15 K | 1063.25 ± 4
303.15 K | 1056.63 ± 4
308.15 K | 1050.08 ± 4
313.15 K | 1043.44 ± 4
318.15 K | 1036.62 ± 4
323.15 K | 1029.88 ± 4

COC(=O)OC [dimethyl carbonate] + CCCCn1cc[n+](C)c1.F[P-](F)(F)(F)(F)F
[2], x2 = 0
Details | mass density [kg/m3]
293.15 K | 1069.83 ± 4
298.15 K | 1063.25 ± 4
303.15 K | 1056.63 ± 4
308.15 K | 1050.08 ± 4
313.15 K | 1043.44 ± 4
318.15 K | 1036.62 ± 4
323.15 K | 1029.88 ± 4
